Assay results reported in US4044051A, “9[2-(1-Al koxy-ethyl)-5,5-dimethyl-cyclopent-1-en-1-yl]-3,7-dimethyl-nona-2,4,6,8-t etraen acid compounds” (Hoffmann-La Roche Inc., priority 1971, dated 1977).

Assays:
[1] = acute toxicity (delayed toxicity in mice after 20 days), i.p. in rape oil; assay type: in vivo; settings: mouse, ip
Text: (§1) The toxicity of the polyene compound of formula I is slight.

mice = assay: as above; assay type: in vivo
Text: as §1

`COC(C)C1=C(C=CC(C)=CC=CC(C)=CC(=O)O)C(C)(C)CC1` (centres unmarked) [9-[2-(1-methoxyethyl)-5,5-dimethyl-cyclopent-1-en-1-y1]-3,7-dimethyl-nona-2,4,6,8-tetraen-1-acid] gave an LD50 at 24 h ([1]; after 1 day) of over 4000 mg/kg, an LD50 at 240 h ([1]; after 10 days) of 350 mg/kg and an LD10 (mice; after 1 day) of over 4000 mg/kg. It also gave an LD90 (mice; after 1 day) of over 4000 mg/kg, an LD10 (mice; after 10 days) of 290 mg/kg and an LD90 (mice; after 10 days) of 430 mg/kg. For the same molecule, the LD10 (mice; after 20 days) was 290 mg/kg and the LD90 (mice; after 20 days) was 430 mg/kg.
